{
  "source": "patent US20230303672A1",
  "about": "“METASTATIC CANCER TREATMENT OR PREVENTION” (OXFORD BROOKES UNIVERSITY, priority 2020, published 2023)",
  "molecules": {"B1": {"name": "recombinant plectin: 2b Scientific RPC754Hu01, residues Asp 175-Pro 400 (SEQ ID NO: 1) of human plectin, the actin-binding domain (protein, listed as Homo sapiens)", "chain": "DERDRVQKKTFTKWVNKHLIKAQRHISDLYEDLRDGHNLISLLEVLSGDSLPREKGRMRFHKLQNVQIALDYLRHRQVKLVNIRNDDIADGNPKLTLGLIWTIILHFQISDIQVSGQSEDMTAKEKLLLWSQRMVEGYQGLRCDNFTSSWRDGRLFNAIIHRHKPLLIDMNKVYRQTNLENLDQAFSVAERDLGVTRLLDPEDVDVPQPDEKSIITYVSSLYDAMP"}},
  "key": {"[1]": {"tested_on": "MCF7 (metastatic) cells adhering to endothelial cells", "experiment": "Endothelial static adhesion assay with or without antibodies and peptides", "format": "cell-based", "settings": "peptide and corresponding peptide conjugate; compared to BT474 (non-metastatic) cells; 12 replicates; FIG. 15", "experimental": "MCF7 and HUVEC cells were grown in 24 well cell culture plates to 70% confluency the cells were treated with Dharmafect™ transfection reagent and 5 uM of plectin siRNAs or scrambled negative control for 24 hrs. Some HUVEC and MCF7 cells were non-treated. HUVEC cells were activated by treating with 10 ug/ml TNFa in complete medium for 2 hrs at 37° C., 5% CO2. MCF7 breast cancer cells were grown in T75 flasks until 70% confluency and treated with 10 mg/ml HTPS in complete medium for 2 hrs at 37° C., 5% CO2. HTPS was removed and cells were washed with 10 ml of PBS 5 times until the wash ran clear. Cells were scraped and counted. 20,000 cells/ml was prepared. MCF7 cells were treated with either 500 ul of EVs isolated using the extraction method outlined above, or 500 ul of PBS for 10 mins at RT. EVs or PBS was removed and 1 ml of MCF7 cells were added to HUVEC cells and incubated at 37° C., 5% CO2 for 10 mins, before cells were removed and wells gently washed with warmed PBS to remove any unbound cells. Wells were then fixed with 4% PFA for 10 mins at RT. Fixative was removed and the wells washed 3 times with PBS and then coverslips were mounted using fluoromount. Total adhered cells per coverslip were counted.\nThis was as above but using 1/1000 of stock antibodies and peptides stated below."}, "[2]": {"tested_on": "HPA-positive BC cells binding to endothelial cells", "settings": "incubating cells with HPA or BSA-GalNAc; 'It has been shown'; cited from earlier work"}, "[3]": {"tested_on": "MCF7 breast cancer cell adhesion to endothelial cells (HUVEC)", "experiment": "Endothelial static adhesion assay with recombinant plectin", "format": "cell-based", "settings": "MCF7 treated with 0.1 ug/ml recombinant plectin for 10 mins, compared to untreated, FIG. 6", "experimental": "Coverslips with activated endothelial cells were prepared as above. MCF7 breast cancer cells were grown in T75 flasks until 70% confluency and treated with 10 mg/ml HTPS in complete medium for 2 hrs at 37° C., 5% CO2. HTPS was removed and cells were washed with 10 ml of PBS 5 times until the wash ran clear. Cells were scraped and counted. 20,000 cells/ml was prepared. MCF7 cells were treated with either 0.1 ug/ml recombinant plectin, (2b Scientific SKU RPC754Hu01 (residues Asp 175-Pro 400 (SEQ ID NO: 1) of human plectin Uniprot ID Q15149, corresponding to the actin-binding domain), in PBS or PBS for 10 mins at RT. Recombinant plectin or PBS were removed from cells and 20,000 cells/ml of MCF7 cells were added per well and incubated for 10 mins, cells were removed and wells gently washed with warmed PBS to remove any unbound cells. Wells were then fixed with 4% PFA for 10 mins at RT. Fixative was removed and the wells washed 3 times with PBS and then coverslips were mounted using fluoromount. Total adhered cells per coverslip were counted.\nSterilised 13 mm D glass coverslips were placed in wells of 24 well plate and 100,000 HUVEC cells were seeded. Cells were incubated at 37° C. with 5% CO2 atmosphere until cells became a monolayer. HUVEC cells were activated by treating with 10 ug/ml TNFa in complete medium for 2 hrs at 37° C., 5% CO2."}},
  "data": [
    {"molecule": "AVIYGGVQ [SEQ7]", "values": [
      {"measurement": "MCF7 (metastatic) cells binding to endothelial cells (peptide)", "setting": "[1]", "result": "specifically reduces MCF7 (metastatic) cells binding to endothelial cells in a concentration dependant manner"}
    ]},
    {"molecule": "BSA-GalNAc: GalNAc sugar conjugated to BSA", "values": [
      {"measurement": "BC cell binding to endothelial cells", "setting": "[2]", "result": "inhibits cells binding"}
    ]},
    {"molecule": "B1", "values": [
      {"measurement": "Cell adhesion of MCF7 to endothelial cells", "setting": "[3]", "result": "significantly decreases"},
      {"measurement": "Cell adhesion of MCF7 to endothelial cells", "setting": "[3]; listed as recombinant plectin fragment", "result": "significantly reduced"}
    ]}
  ]
}
